Measured values as given in article PMC4168900, “Expeditive synthesis of trithiotriazine-cored glycoclusters and inhibition of Pseudomonas aeruginosa biofilm formation” (Beilstein Journal of Organic Chemistry, 2014).

Key:
lecA [1] = target: T1, lecA (Pseudomonas aeruginosa, UniProt Q05097); test: Isothermal titration calorimetry (ITC), binding to lecA; settings: for ΔG / ΔH / β/N (improvement in affinity relative to the methyl glycoside, divided by the valency) / −TΔS / n (stoichiometry): T = 298 K; for n (stoichiometry): glycocluster ligands per monomer of lectin
T1 sequence (Q05097 2-122): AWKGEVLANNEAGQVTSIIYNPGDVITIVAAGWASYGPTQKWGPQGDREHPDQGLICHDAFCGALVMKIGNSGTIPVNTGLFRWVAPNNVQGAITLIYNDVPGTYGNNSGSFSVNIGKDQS
Method: The affinities of the designed glycoconjugates with lecA and lecB were determined by isothermal titration calorimetry (ITC) by addition of the ligands to a solution of lectin (Figure 3). Dissociation constants (Kd) and thermodynamic parameters (ΔG, ΔH, −TΔS) are listed in Table 1, together with the experimental binding stoichiometry (n), defined as the number of glycocluster ligands per monomer of lectin. […]
Isothermal titration microcalorimetry (ITC):
Recombinant lyophilized lecA and lecB were dissolved in buffer (100 mM Tris-HCl pH 7.5, 6 µM CaCl2,) and degassed. The same procedure was applied for lecB with a different buffer (20mM Tris-HCl pH 7.54 100mM NaCl 100µM CaCl2). Protein concentration varied between 50 and 120 µM depending on the ligand affinity. Carbohydrate ligands were dissolved directly into the same buffer, degassed, and placed in the injection syringe. ITC was performed using a VP-ITC MicroCalorimeter from MicroCal Incorporated. lecA was placed into the 1.4478 mL sample cell, at 25°C. Titration was performed with 10 µL injections of carbohydrate ligands every 300 s. Data were fitted using MicroCal Origin 7 software according to standard procedures. Fitted data yielded the stoichiometry (n), the association constant (Ka), and the enthalpy of binding (∆H). Other thermodynamic parameters (i.e., changes in free energy ∆G and entropy ∆S) were calculated from the equation ∆G = ∆H - T∆S = -[…] in which T is the absolute […]
temperature and R = 8.314 Jmol-1K-1. […]

lecA [2] = target: T1, lecA; test: Dynamic light scattering (DLS), aggregation of lecA
Method: Dynamic light scattering experiments (DLS) were performed on the trivalent and divalent galactose-substituted clusters 1, 16 and 17, as well as the glucose-substituted cluster 13 as a negative control. […] The inability of these systems to efficiently aggregate lectins is in stark contrast to the hexavalent benzene cluster, which may be attributed to differences in rigidity and hydrophobicity between the two systems. It thus appears that the direct diaryl sulfide bridge presents a more optimal degree of semi-rigidity.
Figure 2 Dynamic light scattering experiments of bis-D-galactosyl proparyl cluster 16 with lecA. Distribution by mass for lecA + buffer (left) and lecA + 16 (200 μM, right) at 3 minute intervals. Additional experiments can be found in Supporting Information File 1.

PAO1 biofilm = test: P. aeruginosa adherence / biofilm formation assay, crystal violet staining; assay type: cell-based, Pseudomonas aeruginosa; settings: 5 mM cluster, 24 h, 30 °C, LB medium, compared to glucose-bearing cluster 13 or absence of cluster
Method: The P. aeruginosa adherence assay was performed in 24 well microplates. Biofilms were obtained after 24 h of incubation at 30 °C in LB medium alone or in the presence or galactose, fucose, or glucose (control)-substituted trivalent clusters and stained with crystal violet (CV).
All reagents were commercial and used without further purification. Solvents were distilled from CaH2.
(§1) Reactions under microwave activation were performed using a Biotage Initiator system. NMR spectra were recorded at 293 K, unless otherwise stated, using a 300 or 400 or 500 MHz spectrometer.
Shifts are referenced relative to deuterated solvent residual peaks. Complete signal assignments from 1D and 2D NMR spectroscopy were based on COSY, HSQC, and HMBC correlations. High-resolution (HR-ESI- QToF) mass spectra were recorded using a Bruker MicroToF-Q II XL spectrometer. Thin-layer chromatography (TLC) was carried out on aluminum sheets coated with silica gel 60 F254 (Merck). […] IR spectra were recorded on a Shimadzu FTIR-8400S IR spectrophotometer and n are expressed in cm-1. NMR spectra were recorded on a Bruker DRX (1H at 300 or 400 MHz, 13C at 75 or 100 MHz) or on a Bruker AV500 spectrometer (1H at 500 MHz, 13C at 125 MHz). HRMS were recorded in electrospray ionization mode on a micro q-tof Micromass in strument (3000 V) with an internal lock mass (H3PO4) and an external lock mass (Leu- […]

PAO1 = PAO1 growth inhibition control test; assay type: cell-based, Pseudomonas aeruginosa; settings: PAO1 in the presence of clusters
Method: To check that differences observed were not due to bacterial growth defect in the presence of clusters, a growth inhibition control experiment was performed (Figure 4C). […] A) Biofilm growth assay in LB medium. B) Statistical analysis (above, n = 5, duplicate UV measurements) of ethanol-solubilized biofilm recovered from each well (below). C) PAO1 growth inhibition control test.

lecB = lecB (Pseudomonas aeruginosa, UniProt Q9HYN5); test: Isothermal titration calorimetry (ITC), binding to lecB
lecB, sequence (Q9HYN5 entry or part of it): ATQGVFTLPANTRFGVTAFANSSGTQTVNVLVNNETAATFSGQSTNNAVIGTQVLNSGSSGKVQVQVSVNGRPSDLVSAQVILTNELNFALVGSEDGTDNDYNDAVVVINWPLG
Method: The affinities of the designed glycoconjugates with lecA and lecB were determined by isothermal titration calorimetry (ITC) by addition of the ligands to a solution of lectin (Figure 3). Dissociation constants (Kd) and thermodynamic parameters (ΔG, ΔH, −TΔS) are listed in Table 1, together with the experimental binding stoichiometry (n), defined as the number of glycocluster ligands per monomer of lectin.
The observed β/N values in Table 1, which reflect the relative affinity per unit sugar, are 29 for the trivalent cluster and in the range of 12 for the bivalent clusters. These values most likely reflect sub-site binding by the heterocyclic rings. […] These clusters thus represent a readily accessible, highly soluble, and convenient tool for the investigation of the role of lecA and lecB in the formation of biofilms by Pseudomonas aeruginosa. […]
as §1
Shifts are referenced relative to deuterated solvent residual peaks. […] High-resolution (HR-ESI- QToF) mass spectra were recorded using a Bruker MicroToF-Q II XL spectrometer. […] IR spectra were recorded on a Shimadzu FTIR-8400S IR spectrophotometer and n are expressed in cm-1. […]

Compound | Kd (lecA [1]) | ΔG (lecA [1]; ITC) | ΔH (lecA [1]; ITC) | β/N (improvement in affinity relative to the methyl glycoside, divided by the valency) (lecA [1]; ITC) | −TΔS (lecA [1]; ITC) | n (stoichiometry) (lecA [1]; ITC) | aggregation of lecA (lecA [2]) | biofilm formation (PAO1 biofilm) | bacterial growth defect (PAO1) | affinity for the lectin (in words) (lecA [1]; ITC, negative control) | Kd (lecB)
OC[C@H]1O[C@@H](n2cc(CSc3nc(SCc4cn([C@@H]5O[C@H](CO)[C@H](O)[C@H](O)[C@H]5O)nn4)nc(SCc4cn([C@@H]5O[C@H](CO)[C@H](O)[C@H](O)[C@H]5O)nn4)n3)nn2)[C@H](O)[C@@H](O)[C@H]1O [compound 1, 2,4,6-tris(1-(β-D-galactopyranosyl)triazol-4-ylmethylthio)-1,3,5-triazine] | 1.09 µM | -8.15 kcal/mol | -15.8 kcal/mol | 29 | 7.62 kcal/mol | 0.31 | only the divalent bis-D-Gal propargyl cluster 16 induces rapid aggregation of lecA | statistically significant reduction in biofilm formation | No growth defect was observed | – | –
OC[C@H]1O[C@@H](n2cc(CSc3nc(SCc4cn([C@@H]5O[C@H](CO)[C@@H](O)[C@H](O)[C@H]5O)nn4)nc(SCc4cn([C@@H]5O[C@H](CO)[C@@H](O)[C@H](O)[C@H]5O)nn4)n3)nn2)[C@H](O)[C@@H](O)[C@@H]1O [compound 13, 2,4,6-tris(1-(β-D-glucopyranosyl)triazol-4-ylmethylthio)-1,3,5-triazine] | – | <0 kcal/mol | – | – | – | – | only the divalent bis-D-Gal propargyl cluster 16 induces rapid aggregation of lecA | – | No growth defect was observed | no affinity for the lectin | –
C[C@@H]1O[C@H](n2cc(CSc3nc(SCc4cn([C@H]5O[C@@H](C)[C@@H](O)[C@@H](O)[C@@H]5O)nn4)nc(SCc4cn([C@H]5O[C@@H](C)[C@@H](O)[C@@H](O)[C@@H]5O)nn4)n3)nn2)[C@@H](O)[C@H](O)[C@@H]1O [compound 14, 2,4,6-tris(1-(β-L-fucopyranosyl)triazol-4-ylmethylthio)-1,3,5-triazine] | – | – | – | – | – | – | – | statistically significant reduction in biofilm formation | No growth defect was observed | – | 50 µM
C#CCSc1nc(SCc2cn([C@@H]3O[C@H](CO)[C@H](O)[C@H](O)[C@H]3O)nn2)nc(SCc2cn([C@@H]3O[C@H](CO)[C@H](O)[C@H](O)[C@H]3O)nn2)n1 [compound 16, 2,4-bis(1-(β-D-galactopyranosyl)triazol-4-ylmethylthio)-6-(prop-2-ynylthio)-1,3,5-triazine] | 4.4 µM | -7.29 kcal/mol | -11.4 kcal/mol | 11 | 4.11 kcal/mol | 0.79 | induces rapid aggregation of lecA | – | – | – | –
OC[C@H]1O[C@@H](n2cc(CSc3nc(SCc4cn([C@@H]5O[C@H](CO)[C@H](O)[C@H](O)[C@H]5O)nn4)nc(SCc4cn([C@@H]5O[C@H](CO)[C@@H](O)[C@H](O)[C@H]5O)nn4)n3)nn2)[C@H](O)[C@@H](O)[C@H]1O [compound 17, 2,4-bis(1-(β-D-galactopyranosyl)triazol-4-ylmethylthio)-6-(1-(β-D-glucopyranosyl)triazol-4-ylmethylthio)-1,3,5-triazine] | 3.4 µM | -7.48 kcal/mol | -12.2 kcal/mol | 14 | 4.71 kcal/mol | 0.54 | only the divalent bis-D-Gal propargyl cluster 16 induces rapid aggregation of lecA | – | – | – | –
CO[C@@H]1O[C@H](CO)[C@H](O)[C@H](O)[C@H]1O [β-D-GalOMe, methyl β-D-galactoside] | – | – | – | 1 | – | – | – | – | – | – | –
